A short description of assay [1]: Concentration required to inhibit the maximum [14C]Gly-Sar uptake by Renal peptide transporter PepT2 in SKPT cells. Conditions: Rattus norvegicus. The class given is cell-based.
A short description of assay [2]: Affinity against Renal peptide transporter PepT2 in SKPT cells was measured by the inhibition of [14C]Gly-Sar uptake. It is filed as cell-based, Rattus norvegicus.
Assay [3] deals with T1, Solute carrier family 15 member 1 (Homo sapiens, UniProt P46059).
T1 sequence (P46059 whole entry): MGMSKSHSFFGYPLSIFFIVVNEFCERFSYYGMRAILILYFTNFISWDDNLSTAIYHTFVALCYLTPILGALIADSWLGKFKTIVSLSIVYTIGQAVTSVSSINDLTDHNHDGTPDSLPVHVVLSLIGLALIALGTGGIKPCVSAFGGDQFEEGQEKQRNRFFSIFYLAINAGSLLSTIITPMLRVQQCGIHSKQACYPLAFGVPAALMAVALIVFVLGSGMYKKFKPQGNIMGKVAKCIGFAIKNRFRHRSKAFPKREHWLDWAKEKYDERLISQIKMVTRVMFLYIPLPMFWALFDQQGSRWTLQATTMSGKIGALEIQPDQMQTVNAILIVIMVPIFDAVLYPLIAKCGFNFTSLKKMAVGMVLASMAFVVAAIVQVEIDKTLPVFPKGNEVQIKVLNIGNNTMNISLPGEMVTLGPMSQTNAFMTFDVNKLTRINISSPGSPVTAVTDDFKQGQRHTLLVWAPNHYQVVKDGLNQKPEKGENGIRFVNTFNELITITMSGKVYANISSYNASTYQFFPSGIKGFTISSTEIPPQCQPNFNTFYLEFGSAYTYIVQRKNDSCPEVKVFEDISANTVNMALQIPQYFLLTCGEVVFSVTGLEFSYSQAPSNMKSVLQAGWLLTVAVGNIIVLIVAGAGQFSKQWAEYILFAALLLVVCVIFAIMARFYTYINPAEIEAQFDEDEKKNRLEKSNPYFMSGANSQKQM
Description: Concentration required to inhibit the maximum [14C]Gly-Sar uptake by human Intestinal peptide transporter PepT1 in Caco-2 cells. It is filed as cell-based.

The target in assay [4] is T1, Solute carrier family 15 member 1. Description: Affinity fo the compound against human Intestinal peptide transporter PepT1 in Caco-2 cells was measured as inhibition of [14C]Gly-Sar uptake. It is filed as cell-based. A general note: Passage across Caco-2 layers is used to estimate intestinal permeability.

SMILES strings stand for the structures. pIC50, pKi: −log10 of the molar value. Peptide text beside a SMILES is read from it.

As usually defined, the pIC50 is the IC50 on a negative log10 scale, so that one unit is a factor of ten. Higher therefore signals a small IC50. In general, pKi refers to the negative decadic logarithm of the Ki, by convention in mol/L. Low values mean a large Ki, high ones a small Ki.

For `N[C@@H](Cc1ccccc1)[C@@H](O)CCC(=O)O`, the pIC50 in assay [1] was 2.09. Moreover, the pKi in assay [2] is 2.16.
Regarding `N[C@@H](Cc1ccccc1)[C@@H](O)/C=C/C(=O)O`, the pIC50 was 1.39 in assay [3] and 2.80 in assay [1]. In addition, the figures for the pKi in assay [4] and in assay [2] were 1.40 and 2.87, respectively.
With `N[C@@H](Cc1ccccc1)[C@H](O)CCC(=O)O`, in assay [1], the negative-log IC50 (pIC50) was 2.06. Besides, in assay [2], the pKi is 2.13.
The corresponding values for `CC1=C(C(=O)O)N2C(=O)[C@@H](NC(=O)[C@H](N)c3ccccc3)[C@H]2SC1` [CEPHALEXIN ANHYDROUS] are 4.38 and 4.45.
As to `N[C@@H](Cc1ccccc1)C(=O)NCC(=O)O` (H-Phe-Gly-OH), the pIC50 was 3.70 in assay [3] and 4.76 in assay [1]. For the same molecule, the pKi was 3.70 in assay [4] and 4.84 in assay [2].
Regarding `N[C@@H](Cc1ccccc1)[C@H](O)/C=C/C(=O)O`, the pIC50 is 1.57 in assay [3] and 2.39 in assay [1]. For the same molecule, the pKi was 1.58 in assay [4] and 2.46 in assay [2].
The corresponding values for `N[C@@H](Cc1ccccc1)C(=O)CCC(=O)O` are 3.40, 4.65, 3.40 and 4.73.

The values above are taken from ChEMBL document CHEMBL1149319, “Phe-Gly dipeptidomimetics designed for the di-/tripeptide transporters PEPT1 and PEPT2: synthesis and biological investigations” (J Med Chem, 2004).
